According to patent US12336977B2, “Nitenin analogue compounds and their use in the treatment of chronic and acute pain” (SEA4US-BIOTECNOLOGIA E RECURSOS MARINHOS, LDA., priority 2019, dated 2025):

Key:
[1] = test system: K+ currents of small diameter dorsal-root ganglion neuron; experiment: voltage dependence of steady state of inactivation of K+ currents in sdDRGn; type: cell-based, rat; conditions: sdDRGn
Description: (§1) One can observe a shift to hyperpolarized values during the nitenin treatment. The relationships were better fit with the sum of two Boltzmann functions, showing that in both conditions there are two components: one more hyperpolarized component (component 1) and one other more depolarized component (component 2).
as §1, with “treatment with the compound of formula VI.” for “nitenin treatment.”
as §1, with “treatment with the compound of formula VII.” for “nitenin treatment.”
as §1, with “treatment with the compound of formula VIII.” for “nitenin treatment.”
For the electrophysiological recordings of the ex vivo material, voltage-clamp recordings were performed on neurons isolated from rat DRGs (and TGs). Recordings were performed from the soma that often contained the proximal fraction of axon, 1 hour after the end of the cell isolation process (includes enzymatic and mechanical treatment).

[2] = test system: voltage activated K+ currents (Islow, Ifast) of small diameter Dorsal Root Ganglia neurons (sdDRGns); experiment: whole-cell voltage-clamp of voltage activated K+ currents in sdDRGns; type: cell-based, rat

O=C1OC(CO)CC1=CCCc1ccoc1 (centres unmarked) [compound of formula VIII-A]
Vh2 of steady state inactivation ([1]; 6.5 μg/ml, 29.4 μM, control −18.1): −35.5 mV | Vh1 of steady state inactivation ([1]; 6.5 μg/ml, 29.4 μM, control −53.6): −88.9 mV | time constant τ of the sensitive current (current subtraction, single-exponential fit) ([2]; 6.5 μg/ml, 29.4 μM): ~450 ms

C/C(=C\C1OC(=O)CC1O)CCCc1ccoc1 (centres unmarked) [compound of formula VII]
Vh2 of steady state inactivation ([1]; 0.1 μg/ml, 399 nM, control −13.7): −32.4 mV | Vh1 of steady state inactivation ([1]; 0.1 μg/ml, 399 nM, control −64.1): −92.6 mV

C=CC1OC(=O)CC1O (centres unmarked) [compound of formula VI]
Vh2 of steady state inactivation ([1]; 10 μg/ml, 77.9 μM, control −23.9): −40.5 mV | Vh1 of steady state inactivation ([1]; 10 μg/ml, 77.9 μM, control −91.0): −102.9 mV | time constant τ of the sensitive current (current subtraction, single-exponential fit) ([2]; 10 μg/ml, 77.9 μM): ~795 ms
